The supplement of paper PMC10307832

Experiments:
Test in all cases: relative viability (nuclei count vs DMSO), 5 days (fraction); higher = more cells survive
NCI-H1793 = test system: NCI-H1793
In short: (§1)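 Dosing by pin tool came one day after lung cancer cell lines were seeded in 1536-well plates, using either one drug or a fixed anchor-drug dose plus five library-drug doses (not always all listed) in √10 steps. After 5 days, nuclei were counted on 4× images. Relative viability is treated-well nuclei count divided by vehicle-well nuclei count, and values are medians of duplicate plates.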

A-427 = test system: A-427
In short: as §1

HCC-366 = test system: HCC-366
In short: as §1

NCI-H2023 = test system: NCI-H2023
In short: as §1

NCI-H2405 = test system: NCI-H2405
In short: as §1

NCI-H2009 = test system: NCI-H2009
In short: as §1

NCI-H1437 = test system: NCI-H1437
In short: as §1

UMC-11 = test system: UMC-11
In short: as §1

NCI-H596 = test system: NCI-H596
In short: as §1

HARA = test system: HARA
In short: as §1

NCI-H1975 = test system: NCI-H1975
In short: as §1

SK-LU-1 = test system: SK-LU-1
In short: as §1

NCI-H441 = test system: NCI-H441
In short: as §1

NCI-H650 = test system: NCI-H650
In short: as §1

PC-14 = test system: PC-14
In short: as §1

NCI-H1755 = test system: NCI-H1755
In short: as §1

LXF-289 = test system: LXF-289
In short: as §1

H3255 = test system: H3255
In short: as §1

NCI-H1915 = test system: NCI-H1915
In short: as §1

NCI-H460 = test system: NCI-H460
In short: as §1

PC-3 [JPC-3] = test system: PC-3 [JPC-3]
In short: as §1

NCI-H3122 = test system: NCI-H3122
In short: as §1

HCC-15 = test system: HCC-15
In short: as §1

O=c1[nH]c2ccccc2n1C1CCN(CCCC(c2ccc(F)cc2)c2ccc(F)cc2)CC1 [Pimozide] + O=C(c1cc(Cc2n[nH]c(=O)c3ccccc23)ccc1F)N1CCN(C(=O)C2CC2)CC1 [Olaparib] (partner 8 µM)
relative viability (NCI-H1793; first compound 0.08 µM): 0.762
relative viability (NCI-H1793; first compound 0.253 µM): 0.826
relative viability (NCI-H1793; first compound 0.8 µM): 0.875
relative viability (NCI-H1793; first compound 2.53 µM): 0.772
relative viability (NCI-H1793; first compound 8 µM): 0.706
relative viability (A-427; first compound 0.08 µM): 0.708
relative viability (A-427; first compound 0.253 µM): 0.681
relative viability (A-427; first compound 0.8 µM): 0.661
relative viability (A-427; first compound 2.53 µM): 0.691
relative viability (A-427; first compound 8 µM): 0.685
relative viability (HCC-366; first compound 0.08 µM): 0.355
relative viability (HCC-366; first compound 0.253 µM): 0.332
relative viability (HCC-366; first compound 0.8 µM): 0.373
relative viability (HCC-366; first compound 2.53 µM): 0.323
relative viability (HCC-366; first compound 8 µM): 0.334
relative viability (NCI-H2023; first compound 0.08 µM): 0.481
relative viability (NCI-H2023; first compound 0.253 µM): 0.47
relative viability (NCI-H2023; first compound 0.8 µM): 0.444
relative viability (NCI-H2023; first compound 2.53 µM): 0.351
relative viability (NCI-H2023; first compound 8 µM): 0.348
relative viability (NCI-H2405; first compound 0.08 µM): 0.833
relative viability (NCI-H2405; first compound 0.253 µM): 0.826
relative viability (NCI-H2405; first compound 0.8 µM): 0.822
relative viability (NCI-H2405; first compound 2.53 µM): 0.722
relative viability (NCI-H2405; first compound 8 µM): 0.693
relative viability (NCI-H2009; first compound 0.08 µM): 0.761
relative viability (NCI-H2009; first compound 0.253 µM): 0.649
relative viability (NCI-H2009; first compound 0.8 µM): 0.769
relative viability (NCI-H2009; first compound 2.53 µM): 0.683
relative viability (NCI-H2009; first compound 8 µM): 0.629
relative viability (NCI-H1437; first compound 0.08 µM): 0.615
relative viability (NCI-H1437; first compound 0.253 µM): 0.616
relative viability (NCI-H1437; first compound 0.8 µM): 0.6
relative viability (NCI-H1437; first compound 2.53 µM): 0.573
relative viability (NCI-H1437; first compound 8 µM): 0.463
relative viability (UMC-11; first compound 0.08 µM): 0.394
relative viability (UMC-11; first compound 0.253 µM): 0.356
relative viability (UMC-11; first compound 0.8 µM): 0.417
relative viability (UMC-11; first compound 2.53 µM): 0.371
relative viability (UMC-11; first compound 8 µM): 0.466
relative viability (NCI-H596; first compound 0.08 µM): 0.768
relative viability (NCI-H596; first compound 0.253 µM): 0.755
relative viability (NCI-H596; first compound 0.8 µM): 0.663
relative viability (NCI-H596; first compound 2.53 µM): 0.745
relative viability (NCI-H596; first compound 8 µM): 0.779
relative viability (HARA; first compound 0.08 µM): 0.785
relative viability (HARA; first compound 0.253 µM): 0.764
relative viability (HARA; first compound 0.8 µM): 0.746
relative viability (HARA; first compound 2.53 µM): 0.74
relative viability (HARA; first compound 8 µM): 0.749
relative viability (NCI-H1975; first compound 0.08 µM): 0.934
relative viability (NCI-H1975; first compound 0.253 µM): 0.782
relative viability (NCI-H1975; first compound 0.8 µM): 0.858
relative viability (NCI-H1975; first compound 2.53 µM): 0.75
relative viability (NCI-H1975; first compound 8 µM): 0.625
relative viability (SK-LU-1; first compound 0.08 µM): 0.497
relative viability (SK-LU-1; first compound 0.253 µM): 0.485
relative viability (SK-LU-1; first compound 0.8 µM): 0.487
relative viability (SK-LU-1; first compound 2.53 µM): 0.372
relative viability (SK-LU-1; first compound 8 µM): 0.383
relative viability (NCI-H441; first compound 0.08 µM): 0.641
relative viability (NCI-H441; first compound 0.253 µM): 0.593
relative viability (NCI-H441; first compound 0.8 µM): 0.506
relative viability (NCI-H441; first compound 2.53 µM): 0.416
relative viability (NCI-H441; first compound 8 µM): 0.57
relative viability (NCI-H650; first compound 0.08 µM): 0.409
relative viability (NCI-H650; first compound 0.253 µM): 0.333
relative viability (NCI-H650; first compound 0.8 µM): 0.475
relative viability (NCI-H650; first compound 2.53 µM): 0.404
relative viability (NCI-H650; first compound 8 µM): 0.408
relative viability (PC-14; first compound 0.253 µM): 0.276
relative viability (PC-14; first compound 0.8 µM): 0.225
relative viability (PC-14; first compound 2.53 µM): 0.215
relative viability (PC-14; first compound 8 µM): 0.209
relative viability (NCI-H1755; first compound 0.08 µM): 0.879
relative viability (NCI-H1755; first compound 0.253 µM): 0.842
relative viability (NCI-H1755; first compound 0.8 µM): 0.845
relative viability (NCI-H1755; first compound 2.53 µM): 0.825
relative viability (NCI-H1755; first compound 8 µM): 0.776
relative viability (LXF-289; first compound 0.08 µM): 1.09
relative viability (LXF-289; first compound 0.253 µM): 1.04
relative viability (LXF-289; first compound 0.8 µM): 1.01
relative viability (LXF-289; first compound 2.53 µM): 0.937
relative viability (LXF-289; first compound 8 µM): 1.03
relative viability (H3255; first compound 0.253 µM): 0.511
relative viability (H3255; first compound 0.8 µM): 0.504
relative viability (H3255; first compound 2.53 µM): 0.523
relative viability (H3255; first compound 8 µM): 0.59
relative viability (NCI-H1915; first compound 0.08 µM): 0.259
relative viability (NCI-H1915; first compound 0.253 µM): 0.241
relative viability (NCI-H1915; first compound 2.53 µM): 0.246
relative viability (NCI-H1915; first compound 8 µM): 0.243
relative viability (NCI-H460; first compound 0.08 µM): 0.499
relative viability (NCI-H460; first compound 0.253 µM): 0.48
relative viability (NCI-H460; first compound 0.8 µM): 0.394
relative viability (NCI-H460; first compound 2.53 µM): 0.361
relative viability (NCI-H460; first compound 8 µM): 0.398
relative viability (PC-3 [JPC-3]; first compound 0.253 µM): 1.09
relative viability (PC-3 [JPC-3]; first compound 0.8 µM): 1.1
relative viability (PC-3 [JPC-3]; first compound 2.53 µM): 1.08
relative viability (PC-3 [JPC-3]; first compound 8 µM): 1
relative viability (NCI-H3122; first compound 0.08 µM): 0.529
relative viability (NCI-H3122; first compound 0.253 µM): 0.684
relative viability (NCI-H3122; first compound 0.8 µM): 0.66
relative viability (NCI-H3122; first compound 2.53 µM): 0.637
relative viability (NCI-H3122; first compound 8 µM): 0.576
relative viability (HCC-15; first compound 0.08 µM): 0.72
relative viability (HCC-15; first compound 0.253 µM): 0.672
relative viability (HCC-15; first compound 0.8 µM): 0.717
relative viability (HCC-15; first compound 2.53 µM): 0.712
relative viability (HCC-15; first compound 8 µM): 0.738
